In patent US8637467B2, “Pharmaceutical being used for treating cancer and fibrosis disease and the composition and uses thereof” (Wuxi MTLH Biotechnology Co., Ltd., priority 2008, dated 2014):

How the values were obtained:
[1] = system: Rat CC14 liver damage model; test: Rat CC14 liver damage model (chronic liver fibrosis); assay type: in vivo, SD rat; set-up: Liver parameters: unit not given here; details: Gan-li-xin 25 mg/kg iv, once a day for 2 weeks from week 5
Protocol: To evaluate the protective effect of peptide SEQ ID NO:1 on liver damage, we used chronic liver fibrosis model (rat CC14 model) for efficacy evaluation.
Rat CC14 liver damage model
(1) Control group: saline, sc, 2 ml/kg, 10 rats
(2) model group: 40% CC14, sc, 2 ml/kg, 17 rats
(3) Gan-li-xin group: 25 mg/kg, iv, 10 ml/kg, 15 rats
(4) Prevention, high dose group: 50 μg peptide SEQ ID NO:1/kg, iv, 10 ml/kg, 17 rats
(5) Prevention, low dose group: 10 μg peptide SEQ ID NO:1/kg, iv, 10 ml/kg, 17 rats
(6) Treatment, high dose group: 100 μg peptide SEQ ID NO:1/kg, iv, 10 ml/kg, 17 rats
(7) Treatment, high dose group: 20 μg peptide SEQ ID NO:1/kg, iv, 10 ml/kg, 17 rats
Except for control group, inject 40% CC14 subcutaneously twice (Tuesday, and Friday) every week in Group (2) to (6), drug volume (0.2 ml/100 g, the first time 0.5 ml/100 g). CC14 Model construction is 6 weeks. Parallel to the model construction, inject intravenously peptide SEQ ID NO:1 at 50 μg/kg and 10 μg/kg in group (4) and (5), respectively, once a day for 6 weeks. For Group (3), (6), and (7), starting from week 5, inject Gan-li-xin 25 mg/kg, peptide SEQ ID NO:1 at 100 μg/kg and 20 μg/kg, respectively, once a day, continuously for 2 weeks.
All rats were weighed once a week during model construction and drug injection. According to weight, the dose of drugs is adjusted. 24 hours after the last time of CC14 injection, liver weight parameters were examined.
Blood was extracted from femoral artery and serum was separated. The following parameters were examined: serum alanine aminotransferase (ALT), aspartate aminotransferase (AST), Bilirubin (TB), Alkaline phosphatase (ALP), total protein (TP), albumin (ALB), globulin (G), albumin/globulin ratio (A/G), glucose (GLU), total cholesterol (TCH), triglyceride (TG).
Liver homogenate: to examine cholesterol (TCH), triglyceride (TG), alanine aminotransferase (ALT), and aspartate aminotransferase (AST).
[…], dry at 110 C, examine Hydroxyproline (HPA).
Part of the liver is fixed in formalin for histology examination.

liver cancer (H22) = test: Xenograph liver cancer nude mice model (H22); assay type: in vivo; details: H22, positive control, 10 mg/kg
Protocol: (§1) Experimental animals: Female BALB/cA nude mice, age 35-40 days, weight 18-22 g, provided by Shanghai Silaike Experimental Animal Co. Ltd., certificate number: SOCK (Shanghai) 2007-0005.
(§2) The tumor of xenograph nude mice grew to 100˜300 mm^3. Tumor mice were divided into different groups for drug testing. In the experiment below, there were 12 nude mice in negative control group, and 6 nude mice in the group with tested drug. Tumor diameter was measured three times each week, and mice weight was measured at the same time.
(§3) T/C (relative tumor inhibition rate) % was calculated as below: • (1) tumor volume, TV, calculated as below: TV=½×a×b^2 • A and b are length and width. • (2) relative tumor volume, RTV, calculated as below: RTV=TVt/TV0. • TV0 ? is tumor volume at the beginning of drug use (d0), TVt is tumor volume at later time point. • (3) relative tumor inhibition rate T/C (%), calculate as below:
(§4) [formula] TRTV: treatment group RTV; CRTV: negative control RTV

[2] = system: human stomach cancer SGC-7901; test: Human stomach cancer SGC-7901 xenograph nude mice; assay type: in vivo; details: positive control, 25 mg/kg, once a week, 3 weeks
Protocol: as §1, §2, §3, §4
Peptide SEQ ID No:1 was given through tail vain (IV), at dosing of 1 mg/kg, 0.5 mg/kg, 0.25 mg/kg, 0.125 mg/kg, and 0.0625 mg/kg, 6 times a week. 5-FU was positive control, at dosing of 25 mg/kg, once a week. Negative control was given saline solution. The xenograph nude mice were treated for 3 weeks.

[3] = system: human breast cancer MDA-MB-435; test: Human breast cancer MDA-MB-435 xenograph nude mice; assay type: in vivo; details: positive control, 20 mg/kg, once a week, 4 weeks
Protocol: as §1, §2, §3, §4
Peptide SEQ ID No:1 was given through tail vein (IV), at dosing of 2 mg/kg, 1 mg/kg, 0.5 mg/kg, 6 times a week. Docetaxol was positive control, at dosing of 20 mg/kg, once a week. Negative control was given saline solution. The xenograph nude mice were treated for 4 weeks.

human lung cancer A549 = test: Human lung cancer A549 xenograph nude mice; assay type: in vivo; details: positive control, 20 mg/kg, once a week, 3 weeks
Protocol: as §1, §2, §3, §4
Peptide SEQ ID No:1 was given through tail vein (IV), at dosing of 0.5 mg/kg, 0.25 mg/kg, and 0.125 mg/kg, 6 times a week. Docetaxol was positive control, at dosing of 20 mg/kg, once a week. Negative control was given saline solution. The xenograph nude mice were treated for 3 weeks.

With CC1(C)[C@@H](O[C@H]2O[C@H](C(=O)O)[C@@H](O)[C@H](O)[C@H]2O[C@@H]2O[C@H](C(=O)O)[C@@H](O)[C@H](O)[C@H]2O)CC[C@]2(C)[C@H]3C(=O)C=C4[C@@H]5C[C@@](C)(C(=O)O)CC[C@]5(C)CC[C@@]4(C)[C@]3(C)CC[C@@H]12.N.N [Gan-li-xin, Diammonium glycyrrhizinate, reference compound] the “ALB (albumin), serum” value [1] was 17.9 ± 2.5 g/L, the “ALP (alkaline phosphatase), serum” value [1] was 351.6 ± 134.1 IU/L and the “ALT (alanine aminotransferase), serum” value [1] was 73.6 ± 25 IU/L. The “AST (aspartate aminotransferase), serum” value [1] was 253.3 ± 69.3 IU/L, the “Bilirubin, serum” value [1] was 3.3 ± 0.6 µmol/L and the “GLU (glucose), serum” value [1] was 5.4 ± 0.7 mmol/L. The Liver parameters [1] was 4.4 ± 0.6, the Liver weight [1] was 11.6 ± 3.5 g and the “TCH (total cholesterol), serum” value [1] was 1.7 ± 0.5 mmol/L. For the same compound, the “TG (triglyceride), serum” value [1] was 0.7 ± 0.3 mmol/L, the “TP (total protein), serum” value [1] was 64.8 ± 5.4 g/L and the “hydroxyproline amount in rat liver” value [1] was 0.191 ± 0.038 ug/mg wet weight.
With CC(=O)O[C@H]1C(=O)[C@@]2(C)[C@H]([C@H](OC(=O)c3ccccc3)[C@]3(O)C[C@H](OC(=O)[C@H](O)[C@@H](NC(=O)c4ccccc4)c4ccccc4)C(C)=C1C3(C)C)[C@]1(OC(C)=O)CO[C@@H]1C[C@@H]2O [Taxol, reference compound] the “inhibition rate, tumor” value (liver cancer (H22)) was ~67.8%.
In the case of O=c1[nH]cc(F)c(=O)[nH]1 [Peptide 5-FU, reference compound], the “T/C(%) relative tumor inhibition rate” value [2] is reported as 68.71%.
CC(=O)O[C@@]12CO[C@@H]1C[C@H](O)[C@@]1(C)C(=O)[C@H](O)C3=C(C)[C@@H](OC(=O)[C@H](O)[C@@H](NC(=O)OC(C)(C)C)c4ccccc4)C[C@@](O)([C@@H](OC(=O)c4ccccc4)[C@H]21)C3(C)C [docetaxel, reference compound] was tested, and the “T/C(%) relative tumor inhibition rate” value [3] was 16.51% and the “T/C(%) relative tumor inhibition rate” value (human lung cancer A549) was 18.60%.
